Laboratory results: ChEMBL document CHEMBL4418495, “Entpd5 inhibitors” (2012)
The source made the active and inactive calls. How the calls were made is not given here.

What follows are compounds tested against T1, Nucleoside diphosphate phosphatase ENTPD5 (Homo sapiens) (UniProt O75356) (assay: Inhibition of human recombinant ENTPD5 expressed in insect cells assessed as reduction in UDP hydrolysis at 1 uM incubated for 1 hr in presence of UMP, GTP and ATP by Escherichia coli UMP kinase pyrH catalyzed UMP phosphorylation coupled luciferase assay).
T1 sequence (whole entry): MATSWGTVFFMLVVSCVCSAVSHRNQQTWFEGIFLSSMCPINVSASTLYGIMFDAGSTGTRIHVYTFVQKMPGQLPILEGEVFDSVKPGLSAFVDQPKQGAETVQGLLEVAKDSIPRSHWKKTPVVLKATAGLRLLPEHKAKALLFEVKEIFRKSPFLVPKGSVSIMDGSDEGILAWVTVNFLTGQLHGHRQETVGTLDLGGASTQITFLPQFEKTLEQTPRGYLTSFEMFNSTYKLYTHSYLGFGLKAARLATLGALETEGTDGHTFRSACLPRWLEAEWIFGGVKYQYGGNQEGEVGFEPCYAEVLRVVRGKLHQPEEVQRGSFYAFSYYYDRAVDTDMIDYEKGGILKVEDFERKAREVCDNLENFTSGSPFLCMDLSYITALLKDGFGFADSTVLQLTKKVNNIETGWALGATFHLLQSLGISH

inhibition	Structure (SMILES)
Active	CCN(CC)c1ccc(C(Nc2ccccn2)c2ccc3cccnc3c2O)cc1 (centres undefined)
Active	COCCNC(=O)Cn1cc(/C=C2\C(=O)NC(=O)N(C3CCCCC3)C2=O)c2ccccc21
Active	COc1cccc(/C=c2/sc3n(c2=O)C(c2cccs2)C2=C(N=3)c3ccccc3CC2)c1O (centres undefined)
Active	NC1=C/C(=C2\Nc3cc(N)ccc3S2)C(=O)C=C1
Active	Cc1nn2cc(-c3ccccc3)cc2c2c(C)n(C)c(C)c12
Active	O=C1OC(c2ccccc2)OC(=O)C1=Cc1ccc(-c2cccc(Br)c2)o1 (centres undefined)
Active	COc1ccc(/C=C2\SC(=S)N(CCCC(=O)NNC(=O)c3ccccc3O)C2=O)cc1
Active	O=C(Nc1c[nH]c(=O)[nH]c1=O)c1cccc(N2C(=O)c3ccc([N+](=O)[O-])cc3C2=O)c1
Active	S=C(Nc1ccccc1)Nc1ccc2nc(-c3ccco3)c(-c3ccco3)nc2c1
Active	CN1C(=O)c2ccc(NC(=S)NC(=O)CC34CC5CC(CC(C5)C3)C4)cc2C1=O
Active	Cc1ccc(C)c(-c2nn(-c3ccccc3)cc2C=C2C(=O)NC(=O)NC2=O)c1
Active	O=C1N=C(Nc2cccc(Cl)c2Cl)S/C1=C/c1ccc(OCc2ccc(C(=O)O)cc2)c(Br)c1
Active	O=S(=O)(Nc1ccccc1F)c1ccc2c(c1)[C@@H]1C=CC[C@@H]1[C@@H](c1ccc(F)cc1)N2
Active	O=C(O)C1=CC(C(c2ccc(O)c(C(=O)O)c2)c2ccc(O)c(C(=O)O)c2)C=CC1=O (centres undefined)
Active	Cc1ccc(NC2=NC(=O)/C(=C/c3ccc(-c4ccc(C(=O)O)cc4)o3)S2)cc1Cl
Active	COC(=O)Cn1c(/C=C2\C(=O)NC(=S)N(c3cccc(Br)c3)C2=O)cc2ccccc21

The compounds below were run against T1, Nucleoside diphosphate phosphatase ENTPD5 (Homo sapiens) (assay: Inhibition of human recombinant ENTPD5 expressed in insect cells assessed as reduction in UDP hydrolysis up to 10 uM incubated for 1 hr in presence of UMP, GTP and ATP by Escherichia coli UMP kinase pyrH catalyzed UMP phosphorylation coupled luciferase assay).

inhibition	Structure (SMILES)
Dose-dependent effect	CCN(CC)c1ccc(C(Nc2ccccn2)c2ccc3cccnc3c2O)cc1 (centres undefined)
Dose-dependent effect	COCCNC(=O)Cn1cc(/C=C2\C(=O)NC(=O)N(C3CCCCC3)C2=O)c2ccccc21
Dose-dependent effect	COc1cccc(/C=c2/sc3n(c2=O)C(c2cccs2)C2=C(N=3)c3ccccc3CC2)c1O (centres undefined)
Dose-dependent effect	NC1=C/C(=C2\Nc3cc(N)ccc3S2)C(=O)C=C1
Dose-dependent effect	Cc1nn2cc(-c3ccccc3)cc2c2c(C)n(C)c(C)c12
Dose-dependent effect	O=C1OC(c2ccccc2)OC(=O)C1=Cc1ccc(-c2cccc(Br)c2)o1 (centres undefined)
Dose-dependent effect	COc1ccc(/C=C2\SC(=S)N(CCCC(=O)NNC(=O)c3ccccc3O)C2=O)cc1
Dose-dependent effect	O=C(Nc1c[nH]c(=O)[nH]c1=O)c1cccc(N2C(=O)c3ccc([N+](=O)[O-])cc3C2=O)c1
Dose-dependent effect	S=C(Nc1ccccc1)Nc1ccc2nc(-c3ccco3)c(-c3ccco3)nc2c1
Dose-dependent effect	CN1C(=O)c2ccc(NC(=S)NC(=O)CC34CC5CC(CC(C5)C3)C4)cc2C1=O
Dose-dependent effect	Cc1ccc(C)c(-c2nn(-c3ccccc3)cc2C=C2C(=O)NC(=O)NC2=O)c1
Dose-dependent effect	O=C1N=C(Nc2cccc(Cl)c2Cl)S/C1=C/c1ccc(OCc2ccc(C(=O)O)cc2)c(Br)c1
Dose-dependent effect	O=S(=O)(Nc1ccccc1F)c1ccc2c(c1)[C@@H]1C=CC[C@@H]1[C@@H](c1ccc(F)cc1)N2
Dose-dependent effect	O=C(O)C1=CC(C(c2ccc(O)c(C(=O)O)c2)c2ccc(O)c(C(=O)O)c2)C=CC1=O (centres undefined)
Dose-dependent effect	Cc1ccc(NC2=NC(=O)/C(=C/c3ccc(-c4ccc(C(=O)O)cc4)o3)S2)cc1Cl
Dose-dependent effect	COC(=O)Cn1c(/C=C2\C(=O)NC(=S)N(c3cccc(Br)c3)C2=O)cc2ccccc21

The compounds below were run against T2, Uridylate kinase (Escherichia coli (strain K12)) (UniProt P0A7E9) (assay: Inhibition of recombinant Escherichia coli UMP kinase pyrH catalyzed UMP phosphorylation in presence of GTP and ATP incubated for 1 hr by luminescence based assay).
T2 sequence (whole entry): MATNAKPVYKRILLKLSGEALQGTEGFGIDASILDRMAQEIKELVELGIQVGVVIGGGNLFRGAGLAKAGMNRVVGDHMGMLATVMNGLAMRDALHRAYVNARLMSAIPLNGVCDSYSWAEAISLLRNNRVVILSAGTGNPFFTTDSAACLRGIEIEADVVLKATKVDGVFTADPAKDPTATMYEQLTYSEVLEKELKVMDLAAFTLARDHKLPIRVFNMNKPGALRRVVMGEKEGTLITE

inhibition	Structure (SMILES)
inactive	CCN(CC)c1ccc(C(Nc2ccccn2)c2ccc3cccnc3c2O)cc1 (centres undefined)
inactive	COCCNC(=O)Cn1cc(/C=C2\C(=O)NC(=O)N(C3CCCCC3)C2=O)c2ccccc21
inactive	COc1cccc(/C=c2/sc3n(c2=O)C(c2cccs2)C2=C(N=3)c3ccccc3CC2)c1O (centres undefined)
inactive	NC1=C/C(=C2\Nc3cc(N)ccc3S2)C(=O)C=C1
inactive	Cc1nn2cc(-c3ccccc3)cc2c2c(C)n(C)c(C)c12
inactive	O=C1OC(c2ccccc2)OC(=O)C1=Cc1ccc(-c2cccc(Br)c2)o1 (centres undefined)
inactive	COc1ccc(/C=C2\SC(=S)N(CCCC(=O)NNC(=O)c3ccccc3O)C2=O)cc1
inactive	O=C(Nc1c[nH]c(=O)[nH]c1=O)c1cccc(N2C(=O)c3ccc([N+](=O)[O-])cc3C2=O)c1
inactive	S=C(Nc1ccccc1)Nc1ccc2nc(-c3ccco3)c(-c3ccco3)nc2c1
inactive	CN1C(=O)c2ccc(NC(=S)NC(=O)CC34CC5CC(CC(C5)C3)C4)cc2C1=O
inactive	Cc1ccc(C)c(-c2nn(-c3ccccc3)cc2C=C2C(=O)NC(=O)NC2=O)c1
inactive	O=C1N=C(Nc2cccc(Cl)c2Cl)S/C1=C/c1ccc(OCc2ccc(C(=O)O)cc2)c(Br)c1
inactive	O=S(=O)(Nc1ccccc1F)c1ccc2c(c1)[C@@H]1C=CC[C@@H]1[C@@H](c1ccc(F)cc1)N2
inactive	O=C(O)C1=CC(C(c2ccc(O)c(C(=O)O)c2)c2ccc(O)c(C(=O)O)c2)C=CC1=O (centres undefined)
inactive	Cc1ccc(NC2=NC(=O)/C(=C/c3ccc(-c4ccc(C(=O)O)cc4)o3)S2)cc1Cl
inactive	COC(=O)Cn1c(/C=C2\C(=O)NC(=S)N(c3cccc(Br)c3)C2=O)cc2ccccc21

The compounds below were run against T1, Nucleoside diphosphate phosphatase ENTPD5 (Homo sapiens) (assay: Inhibition of human recombinant ENTPD5 expressed in insect cells assessed as reduction in reduction in UDP hydrolysis by measuring inorganic phosphate release incubated for 1 hr by malachite green based assay).

inhibition	Structure (SMILES)
Active	CCN(CC)c1ccc(C(Nc2ccccn2)c2ccc3cccnc3c2O)cc1 (centres undefined)
Active	COCCNC(=O)Cn1cc(/C=C2\C(=O)NC(=O)N(C3CCCCC3)C2=O)c2ccccc21
Active	COc1cccc(/C=c2/sc3n(c2=O)C(c2cccs2)C2=C(N=3)c3ccccc3CC2)c1O (centres undefined)
Active	NC1=C/C(=C2\Nc3cc(N)ccc3S2)C(=O)C=C1
Active	Cc1nn2cc(-c3ccccc3)cc2c2c(C)n(C)c(C)c12
Active	O=C1OC(c2ccccc2)OC(=O)C1=Cc1ccc(-c2cccc(Br)c2)o1 (centres undefined)
Active	COc1ccc(/C=C2\SC(=S)N(CCCC(=O)NNC(=O)c3ccccc3O)C2=O)cc1
Active	O=C(Nc1c[nH]c(=O)[nH]c1=O)c1cccc(N2C(=O)c3ccc([N+](=O)[O-])cc3C2=O)c1
Active	S=C(Nc1ccccc1)Nc1ccc2nc(-c3ccco3)c(-c3ccco3)nc2c1
Active	CN1C(=O)c2ccc(NC(=S)NC(=O)CC34CC5CC(CC(C5)C3)C4)cc2C1=O
Active	Cc1ccc(C)c(-c2nn(-c3ccccc3)cc2C=C2C(=O)NC(=O)NC2=O)c1
Active	O=C1N=C(Nc2cccc(Cl)c2Cl)S/C1=C/c1ccc(OCc2ccc(C(=O)O)cc2)c(Br)c1
Active	O=S(=O)(Nc1ccccc1F)c1ccc2c(c1)[C@@H]1C=CC[C@@H]1[C@@H](c1ccc(F)cc1)N2
Active	O=C(O)C1=CC(C(c2ccc(O)c(C(=O)O)c2)c2ccc(O)c(C(=O)O)c2)C=CC1=O (centres undefined)
Active	Cc1ccc(NC2=NC(=O)/C(=C/c3ccc(-c4ccc(C(=O)O)cc4)o3)S2)cc1Cl
Active	COC(=O)Cn1c(/C=C2\C(=O)NC(=S)N(c3cccc(Br)c3)C2=O)cc2ccccc21
